Earlier results on one compound are cited in article PMC3010278 (Journal of medicinal chemistry, 2010).

Each structure is given as a SMILES string.

The subject of this data set is QR1. Particulars: in vivo.

Regarding `C[S+]([O-])CCCCN=C=S` (stereo not shown) [Compound 54, sulforaphane], the “QR1 induction in rat mammary gland” value was “induce QR1”.
